Test results: the NIST ThermoML archive (doi:10.1021/je050183a)
Numbers after ± are expanded uncertainties.

Columns and labels:
[1] = 101 kPa, Liquid; for viscosity: Capillary tube (Ostwald / Ubbelohde) method; for speed of sound: Linear variable-path acoustic interferometer; for mass density: Pycnometric method
[2] = refractive index (Na D-line) (dimensionless); settings: 298.15 K; 101.33 kPa; Liquid; Standard Abbe refractometry
[3] = xn = mol fraction of the nth substance listed; settings: 101 kPa, Liquid; for viscosity: Capillary tube (Ostwald / Ubbelohde) method; for speed of sound: Linear variable-path acoustic interferometer; for mass density: Pycnometric method
[4] = refractive index (Na D-line) (dimensionless); xn = mol fraction of the nth substance listed; settings: 298.15 K, 101 kPa, Liquid, Standard Abbe refractometry

**Q.** For CC1OC(C)OC(C)O1 (configuration not stated) [2,4,6-trimethyl-1,3,5-trioxane], which viscosity ([1]; 288.15 K) is on record?
**A.** 1.374 ± 0.018 mPa·s

**Q.** And the speed of sound ([1]; 288.15 K)?
**A.** 1217.7 ± 2.7 m/s

**Q.** And the mass density ([1]; 288.15 K)?
**A.** 999.69 ± 1.3 kg/m3

**Q.** What about the viscosity ([1]; 298.15 K) of the same molecule?
**A.** 1.107 ± 0.015 mPa·s

**Q.** And the speed of sound ([1]; 298.15 K)?
**A.** 1174.5 ± 2.6 m/s

**Q.** What about the mass density ([1]; 298.15 K) of the same molecule?
**A.** 988.35 ± 1.3 kg/m3

**Q.** What about the refractive index [2] of the same molecule?
**A.** 1.4029 ± 0.0008

**Q.** What does the source list for CC1OC(C)OC(C)O1 (configuration not stated) [2,4,6-trimethyl-1,3,5-trioxane] + CC1COC(=O)O1?
**A.** viscosity ([3]; 288.15 K, x1 = 0.091): 2.966 ± 0.038 mPa·s; viscosity ([3]; 288.15 K, x1 = 0.2019): 2.809 ± 0.036 mPa·s; viscosity ([3]; 288.15 K, x1 = 0.3007): 2.661 ± 0.035 mPa·s; viscosity ([3]; 288.15 K, x1 = 0.4055): 2.494 ± 0.033 mPa·s; viscosity ([3]; 288.15 K, x1 = 0.5011): 2.333 ± 0.031 mPa·s; viscosity ([3]; 288.15 K, x1 = 0.6022): 2.155 ± 0.028 mPa·s; viscosity ([3]; 288.15 K, x1 = 0.7006): 1.974 ± 0.026 mPa·s; viscosity ([3]; 288.15 K, x1 = 0.8028): 1.779 ± 0.023 mPa·s; viscosity ([3]; 288.15 K, x1 = 0.9027): 1.581 ± 0.021 mPa·s; viscosity ([3]; 288.15 K, x1 = 1): 1.374 ± 0.018 mPa·s; speed of sound ([3]; 288.15 K, x1 = 0.091): 1451.8 ± 2.8 m/s; speed of sound ([3]; 288.15 K, x1 = 0.2019): 1420.2 ± 2.8 m/s; speed of sound ([3]; 288.15 K, x1 = 0.3007): 1392.9 ± 2.8 m/s; speed of sound ([3]; 288.15 K, x1 = 0.4055): 1364.7 ± 2.8 m/s; speed of sound ([3]; 288.15 K, x1 = 0.5011): 1339.7 ± 2.8 m/s; speed of sound ([3]; 288.15 K, x1 = 0.6022): 1314 ± 2.7 m/s; speed of sound ([3]; 288.15 K, x1 = 0.7006): 1289.8 ± 2.7 m/s; speed of sound ([3]; 288.15 K, x1 = 0.8028): 1265.5 ± 2.7 m/s; speed of sound ([3]; 288.15 K, x1 = 0.9027): 1242.1 ± 2.7 m/s; speed of sound ([3]; 288.15 K, x1 = 1): 1217.7 ± 2.7 m/s; mass density ([3]; 288.15 K, x1 = 0.091): 1181.68 ± 1.5 kg/m3; mass density ([3]; 288.15 K, x1 = 0.2019): 1151.81 ± 1.5 kg/m3; mass density ([3]; 288.15 K, x1 = 0.3007): 1127.63 ± 1.4 kg/m3; mass density ([3]; 288.15 K, x1 = 0.4055): 1104.07 ± 1.4 kg/m3; mass density ([3]; 288.15 K, x1 = 0.5011): 1084.21 ± 1.4 kg/m3; mass density ([3]; 288.15 K, x1 = 0.6022): 1064.71 ± 1.4 kg/m3; mass density ([3]; 288.15 K, x1 = 0.7006): 1046.98 ± 1.4 kg/m3; mass density ([3]; 288.15 K, x1 = 0.8028): 1029.73 ± 1.4 kg/m3; mass density ([3]; 288.15 K, x1 = 0.9027): 1014 ± 1.4 kg/m3; mass density ([3]; 288.15 K, x1 = 1): 999.69 ± 1.4 kg/m3; viscosity ([3]; 298.15 K, x1 = 0.091): 2.386 ± 0.032 mPa·s; viscosity ([3]; 298.15 K, x1 = 0.2019): 2.245 ± 0.03 mPa·s; viscosity ([3]; 298.15 K, x1 = 0.3007): 2.116 ± 0.028 mPa·s; viscosity ([3]; 298.15 K, x1 = 0.4055): 1.977 ± 0.027 mPa·s; viscosity ([3]; 298.15 K, x1 = 0.5011): 1.846 ± 0.025 mPa·s; viscosity ([3]; 298.15 K, x1 = 0.6022): 1.705 ± 0.023 mPa·s; viscosity ([3]; 298.15 K, x1 = 0.7006): 1.563 ± 0.021 mPa·s; speed of sound ([3]; 298.15 K, x1 = 0.091): 1415 ± 2.8 m/s; speed of sound ([3]; 298.15 K, x1 = 0.2019): 1382.6 ± 2.8 m/s; speed of sound ([3]; 298.15 K, x1 = 0.3007): 1354.5 ± 2.8 m/s; speed of sound ([3]; 298.15 K, x1 = 0.4055): 1325.5 ± 2.7 m/s; speed of sound ([3]; 298.15 K, x1 = 0.5011): 1299.9 ± 2.7 m/s; speed of sound ([3]; 298.15 K, x1 = 0.6022): 1273.4 ± 2.7 m/s; speed of sound ([3]; 298.15 K, x1 = 0.7006): 1248.5 ± 2.7 m/s; mass density ([3]; 298.15 K, x1 = 0.091): 1170.78 ± 1.4 kg/m3; mass density ([3]; 298.15 K, x1 = 0.2019): 1141.1 ± 1.4 kg/m3; mass density ([3]; 298.15 K, x1 = 0.3007): 1117.02 ± 1.4 kg/m3; mass density ([3]; 298.15 K, x1 = 0.4055): 1093.5 ± 1.4 kg/m3; mass density ([3]; 298.15 K, x1 = 0.5011): 1073.63 ± 1.4 kg/m3; mass density ([3]; 298.15 K, x1 = 0.6022): 1054.05 ± 1.3 kg/m3; mass density ([3]; 298.15 K, x1 = 0.7006): 1036.19 ± 1.4 kg/m3; refractive index ([4]; x1 = 0.091): 1.4188 ± 0.0008; refractive index ([4]; x1 = 0.2019): 1.4172 ± 0.0008; refractive index ([4]; x1 = 0.3007): 1.4157 ± 0.0008; refractive index ([4]; x1 = 0.4055): 1.4142 ± 0.0008; refractive index ([4]; x1 = 0.5011): 1.4127 ± 0.0008; refractive index ([4]; x1 = 0.6022): 1.4111 ± 0.0008; refractive index ([4]; x1 = 0.7006): 1.4094 ± 0.0008

**Q.** For CC1COC(=O)O1 (configuration not stated) [4-methyl-1,3-dioxolan-2-one], which viscosity ([1]; 288.15 K) is on record?
**A.** 3.086 ± 0.04 mPa·s

**Q.** And the speed of sound ([1]; 288.15 K)?
**A.** 1478.4 ± 2.8 m/s

**Q.** And the mass density ([1]; 288.15 K)?
**A.** 1208.67 ± 1.5 kg/m3

**Q.** And the viscosity ([1]; 298.15 K)?
**A.** 2.499 ± 0.033 mPa·s

**Q.** And the speed of sound ([1]; 298.15 K)?
**A.** 1442.3 ± 2.8 m/s

**Q.** And the mass density ([1]; 298.15 K)?
**A.** 1197.58 ± 1.5 kg/m3

**Q.** And the refractive index [2]?
**A.** 1.4203 ± 0.0008

**Q.** With CC1COC(=O)O1 (configuration not stated) [4-methyl-1,3-dioxolan-2-one] + CC1OC(C)OC(C)O1 as the molecule, how does the viscosity ([3]; 288.15 K, x2 = 0) read?
**A.** 3.086 ± 0.04 mPa·s

**Q.** What about the speed of sound ([3]; 288.15 K, x2 = 0) of the same molecule?
**A.** 1478.4 ± 2.8 m/s

**Q.** And the mass density ([3]; 288.15 K, x2 = 0)?
**A.** 1208.67 ± 1.5 kg/m3

**Q.** And the viscosity ([3]; 298.15 K, x2 = 0)?
**A.** 2.499 ± 0.033 mPa·s

**Q.** What about the speed of sound ([3]; 298.15 K, x2 = 0) of the same molecule?
**A.** 1442.3 ± 2.8 m/s

**Q.** What about the mass density ([3]; 298.15 K, x2 = 0) of the same molecule?
**A.** 1197.58 ± 1.5 kg/m3

**Q.** And the refractive index ([4]; x2 = 0)?
**A.** 1.4203 ± 0.0008

**Q.** What does the source list for CCOC(=O)OCC [diethyl carbonate]?
**A.** viscosity ([1]; 288.15 K): 0.868 ± 0.011 mPa·s; speed of sound ([1]; 288.15 K): 1225.6 ± 2.7 m/s; mass density ([1]; 288.15 K): 980.41 ± 1.3 kg/m3; viscosity ([1]; 298.15 K): 0.749 ± 0.01 mPa·s; speed of sound ([1]; 298.15 K): 1173.4 ± 2.7 m/s; mass density ([1]; 298.15 K): 969.15 ± 1.3 kg/m3; refractive index [2]: 1.383 ± 0.0008

**Q.** Which results are given for CCOC(=O)OCC [diethyl carbonate] + CC1OC(C)OC(C)O1?
**A.** viscosity ([3]; 288.15 K, x2 = 0): 0.868 ± 0.011 mPa·s; speed of sound ([3]; 288.15 K, x2 = 0): 1225.6 ± 2.7 m/s; mass density ([3]; 288.15 K, x2 = 0): 980.41 ± 1.3 kg/m3; viscosity ([3]; 298.15 K, x2 = 0): 0.749 ± 0.01 mPa·s; speed of sound ([3]; 298.15 K, x2 = 0): 1173.4 ± 2.7 m/s; mass density ([3]; 298.15 K, x2 = 0): 969.15 ± 1.3 kg/m3; refractive index ([4]; x2 = 0): 1.383 ± 0.0008

**Q.** Which viscosity ([1]; 288.15 K) does the source give for COC(=O)OC [dimethyl carbonate] here?
**A.** 0.647 ± 0.009 mPa·s

**Q.** What about the speed of sound ([1]; 288.15 K) of the same molecule?
**A.** 1242 ± 2.7 m/s

**Q.** And the mass density ([1]; 288.15 K)?
**A.** 1076.43 ± 1.5 kg/m3

**Q.** What about the viscosity ([1]; 298.15 K) of the same molecule?
**A.** 0.579 ± 0.008 mPa·s

**Q.** What about the speed of sound ([1]; 298.15 K) of the same molecule?
**A.** 1197.4 ± 2.7 m/s

**Q.** And the mass density ([1]; 298.15 K)?
**A.** 1063.1 ± 1.5 kg/m3

**Q.** What about the refractive index [2] of the same molecule?
**A.** 1.366 ± 0.0008

**Q.** For COC(=O)OC [dimethyl carbonate] + CC1OC(C)OC(C)O1, which viscosity ([3]; 288.15 K, x2 = 0) is on record?
**A.** 0.647 ± 0.009 mPa·s

**Q.** What about the speed of sound ([3]; 288.15 K, x2 = 0) of the same molecule?
**A.** 1242 ± 2.7 m/s

**Q.** And the mass density ([3]; 288.15 K, x2 = 0)?
**A.** 1076.43 ± 1.5 kg/m3

**Q.** What about the viscosity ([3]; 298.15 K, x2 = 0) of the same molecule?
**A.** 0.579 ± 0.008 mPa·s

**Q.** And the speed of sound ([3]; 298.15 K, x2 = 0)?
**A.** 1197.4 ± 2.7 m/s

**Q.** What about the mass density ([3]; 298.15 K, x2 = 0) of the same molecule?
**A.** 1063.1 ± 1.5 kg/m3

**Q.** What about the refractive index ([4]; x2 = 0) of the same molecule?
**A.** 1.366 ± 0.0008
